Measured values as given in patent publication US11098010B2 (priority 2017, dated 2021).
Structures can show the parent of a compound that is named as a salt. Where two headings read alike, the source gives them in different places.

Test system: HBV rcDNA in HepDE19 cells
Assay: HepDE19 assay with bDNA quantitation of HBV rcDNA
Assay type: cell-based, hepatitis B virus (HBV)
Description: HepDE19 Assay with bDNA Quantitation of HBV rcDNA:
HepDE19 cell culture system is a HepG2 (human hepatocarcinoma) derived cell line that supports HBV DNA replication and cccDNA formation in a tetracycline (Tet)-regulated manner and produces HBV rcDNA and a detectable reporter molecule dependent on the production and maintenance of cccDNA (Guo, et al., 2007, J. Virol. 81:12472-12484).
HepDE19 (50,000 cells/well) were plated in 96-well collagen-coated tissue-culture treated microtiter plates in DMEM/F12 medium supplemented with 10% fetal bovine serum, 1% penicillin-streptomycin and 1 μg/mL tetracycline and incubated in a humidified incubator at 37° C. and 5% CO2 overnight. Next day, the cells were switched to fresh medium without tetracycline and incubated for 4 hours at 37° C. and 5% CO2. The cells were treated with fresh Tet-free medium with compounds at concentrations starting at 25 μM and a serial, ½ log, 8-point, titration series in duplicate. The final DMSO concentration in the assay was 0.5%. The plates were incubated for 7 days in a humidified incubator at 37° C. and 5% CO2. Following a 7 day-incubation, the level of rcDNA present in the inhibitor-treated wells was measured using a Quantigene 2.0 bDNA assay kit (Affymetrix, Santa Clara, Calif.) with HBV specific custom probe set and manufacturers instructions. Concurrently, the effect of compounds on cell viability was assessed using replicate plates, plated at a density of 5,000 cells/well and incubated for 4 days, to determine the ATP content as a measure of cell viability using the cell-titer glo reagent (CTG; Promega Corporation, Madison, Wis.) as per manufacturer's instructions. The plates were read using a Victor luminescence plate reader (PerkinElmer Model 1420 Multilabel counter) and the relative luminescence units (RLU) data generated from each well was calculated as % inhibition of the untreated control wells and analyzed using XL-Fit module in Microsoft Excel to determine EC50 and EC90 (bDNA) and CC50 (CTG) values using a 4-parameter curve fitting algorithm.
Representative compounds of the invention were tested for their abilities to inhibit formation of relaxed circular DNA (rcDNA) in a HepDE19 assay, as described elsewhere herein.

[1] = Hepatitis B virus, HepDE19, 168 h, HepDE19 cells, inhibition of rcDNA formation, 7 day incubation, top concentration 25 μM, read-out: DE-19 bDNA EC50
[2] = HepDE19 cells, inhibition of rcDNA formation, 7 day incubation, top concentration 25 μM, read-out: DE-19 bDNA EC50
[3] = read-out: DE-19 bDNA EC50, HepDE19 cells, inhibition of rcDNA formation, 7 day incubation, top concentration 25 μM
[4] = Hepatitis B virus, HepDE19, 168 h, read-out: DE-19 bDNA EC50 (μM), HepDE19 cells, inhibition of rcDNA formation, 7 day incubation, top concentration 25 μM

Compound | EC50 [1] | EC50 [4] | further results
O=C(N[C@H]1CCc2c(C(=O)Nc3ccc(F)c(Cl)c3)ccc(F)c21)O[C@H]1CCOC1 [Compound 181, O—(S)-Tetrahydrofuran-3-yl, N—((S)-4-((3-chloro-4-fluorophenyl)carbamoyl)-7-fluoro-2,3-dihydro-1H-inden-1-yl) carbamate] | 0.15 µM | – | –
CN1C(=O)CC[C@H]1COC(=O)N[C@H]1CCc2c(C(=O)Nc3ccc(F)c(Cl)c3)ccc(F)c21 [Compound 39] | 0.6 µM | – | –
O=C(NC1CCc2c(C(=O)Nc3ccc(F)c(Cl)c3)cncc21)OCc1ccccn1 (stereo not drawn) [Compound 270, O-Pyridin-2-ylmethyl, N-(4-((3-chloro-4-fluorophenyl)carbamoyl)-6,7-dihydro-5H-cyclopenta[c]pyridin-7-yl) carbamate] | – | – | EC50 [2]: 1.1 µM
O=C(CO)N[C@H]1CCc2c(C(=O)Nc3ccc(F)c(Cl)c3)ccc(F)c21 [Compound 143, (S)—N-(3-Chloro-4-fluorophenyl)-7-fluoro-1-(2-hydroxyacetamido)-2,3-dihydro-1H-indene-4-carboxamide] | 1.5 µM | – | –
CNC(=O)NC1(C)CCc2c(C(=O)Nc3ccc(F)c(Cl)c3)ccc(F)c21 (single isomer, unassigned) [Compound 223, N-(3-chloro-4-fluorophenyl)-7-fluoro-1-methyl-1-(3-methylureido)-2,3-dihydro-1H-indene-4-carboxamide] | – | – | EC50 [2]: 4.52 µM
CC1(C)Cc2c(C(=O)Nc3ccc(F)c(Cl)c3)ccc(F)c2C1NC(=O)OCc1ccccn1 (stereo not drawn) [Compound 135, O-Pyridin-2-ylmethyl, N-(4-((3-chloro-4-fluorophenyl)carbamoyl)-7-fluoro-2,2-dimethyl-2,3-dihydro-1H-inden-1-yl) carbamate] | – | – | EC50 [3]: 8.4 µM
O=C1CC(COC(=O)N[C@H]2CCc3c(C(=O)Nc4ccc(F)c(Cl)c4)ccc(F)c32)N1 (stereo partly drawn) [Compound 213, O-(4-Oxoazetidin-2-yl)methyl, N—((S)-4-((3-chloro-4-fluorophenyl)carbamoyl)-7-fluoro-2,3-dihydro-1H-inden-1-yl) carbamate] | – | 0.33 µM | –
O=C(N[C@H]1CCc2c(C(=O)Nc3ccc(F)c(Cl)c3)ccc(F)c21)OCC1CC(F)(F)CN1 (stereo partly drawn) [Compound 56, O-(4,4-Difluoropyrrolidin-2-yl)methyl, N—((S)-4-((3-chloro-4-fluorophenyl)carbamoyl)-7-fluoro-2,3-dihydro-1H-inden-1-yl) carbamate Hydrochloride] | – | 0.5 µM | –
CNC(=O)NC1CC(C)(C)c2c(C(=O)Nc3ccc(F)c(Cl)c3)ccc(F)c21 (stereo not drawn) [Compound 241, N-(3-chloro-4-fluorophenyl)-7-fluoro-3,3-dimethyl-1-(3-methylureido)-2,3-dihydro-1H-indene-4-carboxamide] | 24 µM | – | –
CC(=O)N1CC(F)(F)CC1COC(=O)N[C@H]1CCc2c(C(=O)Nc3ccc(F)c(Cl)c3)ccc(F)c21 (stereo partly drawn) [Compound 61, O-(1-Acetyl-4,4-difluoropyrrolidin-2-yl)methyl, N—((S)-4-((3-chloro-4-fluorophenyl)carbamoyl)-7-fluoro-2,3-dihydro-1H-inden-1-yl) carbamate] | – | 0.4 µM | –
O=C(Nc1ccc(F)c(Cl)c1)c1ccc(F)c2c1CC[C@@H]2NS(=O)(=O)c1ccccn1 [Compound 184, (S)—N-(3-Chloro-4-fluorophenyl)-7-fluoro-1-(pyridine-2-sulfonamido)-2,3-dihydro-1H-indene-4-carboxamide Hydrochloride] | – | 0.66 µM | –
O=C(N[C@H]1CCc2c(C(=O)Nc3ccc(F)c(Cl)c3)ccc(F)c21)OC[C@H]1CCCO1 [Compound 112, O—((R)-Tetrahydrofuran-2-yl)methyl, N—((S)-4-((3-chloro-4-fluorophenyl)carbamoyl)-7-fluoro-2,3-dihydro-1H-inden-1-yl) carbamate] | – | 0.21 µM | –
O=C(N[C@H]1CCc2c(C(=O)Nc3ccc(F)c(Cl)c3)ccc(F)c21)c1cncs1 [Compound 116, (S)—N-(4-((3-Chloro-4-fluorophenyl)carbamoyl)-7-fluoro-2,3-dihydro-1H-inden-1-yl)thiazole-5-carboxamide] | 1.7 µM | – | –
CNC(=O)NC1CCc2c(C(=O)Nc3ccc(F)c(Cl)c3)ccnc21 (stereo not drawn) [Compound 263, N-(3-Chloro-4-fluorophenyl)-7-(3-methylureido)-6,7-dihydro-5H-cyclopenta[b]pyridine-4-carboxamide] | 1.9 µM | – | –
O=C(N[C@H]1CCc2c(C(=O)Nc3ccc(F)c(Cl)c3)ccc(F)c21)OCc1cnco1 [Compound 95, O-Oxazol-5-ylmethyl, N—(S)-(4-((3-chloro-4-fluorophenyl)carbamoyl)-7-fluoro-2,3-dihydro-1H-inden-1-yl) carbamate] | 0.06 µM | – | –
O=C(N[C@H]1CCc2c(C(=O)Nc3ccc(F)c(Cl)c3)ccc(F)c21)OCc1ncn(COP(=O)(O)O)n1 [Compound 253, O-(1-((Phosphonoxy)methyl)-1H-1,2,4-triazol-3-yl)methyl, N—(S)-(4-((3-chloro-4-fluorophenyl)carbamoyl)-7-fluoro-2,3-dihydro-1H-inden-1-yl) carbamate] | – | 0.12 µM | –
CNC(=O)NC1c2c(F)ccc(C(=O)Nc3ccc(F)c(Cl)c3)c2CC1OC (stereo not drawn) [Compound 235, N-(3-chloro-4-fluorophenyl)-7-fluoro-2-methoxy-1-(3-methylureido)-2,3-dihydro-1H-indene-4-carboxamide] | 4.5 µM | – | –
O=C(N[C@H]1CCc2c(C(=O)Nc3ccc(F)c(Cl)c3)ccc(F)c21)OCc1cc[nH]n1 [Compound 193, O-(1H-Pyrazol-3-yl)methyl, N—(S)-(4-((3-chloro-4-fluorophenyl)carbamoyl)-7-fluoro-2,3-dihydro-1H-inden-1-yl) carbamate] | – | 0.06 µM | –
Cc1cc(C)nc(N[C@H]2CCc3c(C(=O)Nc4ccc(F)c(Cl)c4)ccc(F)c32)n1 [Compound 164, (S)—N-(3-Chloro-4-fluorophenyl)-1-((4,6-dimethylpyrimidin-2-yl)amino)-7-fluoro-2,3-dihydro-1H-indene-4-carboxamide] | – | 1 µM | –
O=C(N[C@H]1CCc2c(C(=O)Nc3ccc(F)c(Cl)c3)ccc(F)c21)OCc1ncn(C2CCCCO2)n1 (stereo partly drawn) [Compound 248, O-(1-(tetrahydro-2H-pyran-2-yl)-1H-1,2,4-triazol-3-yl)methyl, N-((S)-4-((3-chloro-4-fluorophenyl)carbamoyl)-7-fluoro-2,3-dihydro-1H-inden-1-yl) carbamate] | – | – | EC50 [2]: 0.15 µM
COC(=O)NC1COc2c(C(=O)Nc3ccc(F)c(C)c3)ccc(F)c21 (stereo not drawn) [Compound 202, O-Methyl, N-(4-fluoro-7-((4-fluoro-3-methylphenyl)carbamoyl)-2,3-dihydrobenzofuran-3-yl) carbamate] | – | – | EC50 [3]: 0.42 µM
Cn1nccc1C(=O)N[C@H]1CCc2c(C(=O)Nc3ccc(F)c(Cl)c3)ccc(F)c21 [Compound 100, (S)—N-(4-((3-Chloro-4-fluorophenyl)carbamoyl)-7-fluoro-2,3-dihydro-1H-inden-1-yl)-1-methyl-1H-pyrazole-5-carboxamide] | 0.74 µM | – | –
COC(=O)O[C@H]1CCc2c(C(=O)Nc3ccc(F)c(Cl)c3)ccc(F)c21 [Compound 123, (S)-4-(3-Chloro-4-fluorophenylcarbamoyl)-7-fluoro-2,3-dihydro-1H-inden-1-yl Methyl Carbonate] | 0.76 µM | – | –
O=C(N[C@H]1CCc2c(C(=O)Nc3ccc(F)c(Cl)c3)ccc(F)c21)OCCn1cccn1 [Compound 133, O-2-(1H-Pyrazol-1-yl)ethyl, N—(S)-(4-((3-chloro-4-fluorophenyl)carbamoyl)-7-fluoro-2,3-dihydro-1H-inden-1-yl) carbamate] | – | 0.15 µM | –
O=C(CN1CCOCC1)N[C@H]1CCc2c(C(=O)Nc3ccc(F)c(Cl)c3)ccc(F)c21 [Compound 118, (S)—N-(3-Chloro-4-fluorophenyl)-7-fluoro-1-(2-morpholinoacetamido)-2,3-dihydro-1H-indene-4-carboxamide] | 2.2 µM | – | –
NC(=O)c1ccnc(N[C@H]2CCc3c(C(=O)Nc4ccc(F)c(Cl)c4)ccc(F)c32)n1 [Compound 104, (S)-2-((4-((3-Chloro-4-fluorophenyl)carbamoyl)-7-fluoro-2,3-dihydro-1H-inden-1-yl)amino)pyrimidine-4-carboxamide] | – | 0.16 µM | –
COc1nccc(N[C@H]2CCc3c(C(=O)Nc4ccc(F)c(Cl)c4)ccc(F)c32)n1 [Compound 161, (S)—N-(3-Chloro-4-fluorophenyl)-7-fluoro-1-((2-methoxypyrimidin-4-yl)amino)-2,3-dihydro-1H-indene-4-carboxamide] | – | 0.27 µM | –
